Measurements reported in the NIST ThermoML archive (doi:10.1016/j.fluid.2012.03.025).
± gives the expanded uncertainty stated by the source.

Tests used:
[1] = refractive index (Na D-line) (dimensionless); xn = mol fraction of the nth substance listed; settings: 298.15 K, 101 kPa, Liquid, Standard Abbe refractometry
[2] = xn = mol fraction of the nth substance listed; settings: 298.15 K, 101 kPa, Liquid, Vibrating tube method
[3] = Crystal

Structure (SMILES): CCCCCCC(C)O (stereo unspecified) [2-octanol] + CCCCCCCCO
- refractive index ([1]; x2 = 0): 1.4243 ± 0.0004
- refractive index ([1]; x2 = 0.0403): 1.4246 ± 0.0004
- refractive index ([1]; x2 = 0.0812): 1.4247 ± 0.0004
- refractive index ([1]; x2 = 0.1657): 1.425 ± 0.0004
- refractive index ([1]; x2 = 0.2539): 1.4253 ± 0.0004
- refractive index ([1]; x2 = 0.3458): 1.4255 ± 0.0004
- refractive index ([1]; x2 = 0.4421): 1.4259 ± 0.0004
- refractive index ([1]; x2 = 0.5431): 1.4262 ± 0.0004
- refractive index ([1]; x2 = 0.649): 1.4265 ± 0.0004
- refractive index ([1]; x2 = 0.7603): 1.4268 ± 0.0004
- refractive index ([1]; x2 = 0.8771): 1.4272 ± 0.0004
- refractive index ([1]; x2 = 0.9375): 1.4273 ± 0.0004
- mass density ([2]; x2 = 0): 816.49 ± 0.11 kg/m3
- mass density ([2]; x2 = 0.0403): 816.8 ± 0.11 kg/m3
- mass density ([2]; x2 = 0.0812): 817.11 ± 0.11 kg/m3
- mass density ([2]; x2 = 0.1657): 817.65 ± 0.11 kg/m3
- mass density ([2]; x2 = 0.2539): 818.13 ± 0.11 kg/m3
- mass density ([2]; x2 = 0.3458): 818.63 ± 0.11 kg/m3
- mass density ([2]; x2 = 0.4421): 819.16 ± 0.11 kg/m3
- mass density ([2]; x2 = 0.5431): 819.71 ± 0.1 kg/m3
- mass density ([2]; x2 = 0.649): 820.28 ± 0.1 kg/m3
- mass density ([2]; x2 = 0.7603): 820.85 ± 0.1 kg/m3
- mass density ([2]; x2 = 0.8771): 821.36 ± 0.1 kg/m3
- mass density ([2]; x2 = 0.9375): 821.61 ± 0.1 kg/m3

Structure (SMILES): CCCCCCC(C)O (stereo unspecified) [2-octanol] + CCCCCCCCCCCCN(CCCCCCCCCCCC)CCCCCCCCCCCC
- refractive index ([1]; x2 = 0): 1.4244 ± 0.0004
- mass density ([2]; x2 = 0): 816.49 ± 0.11 kg/m3

Structure (SMILES): CCCCCCCCCCCCN(CCCCCCCCCCCC)CCCCCCCCCCCC [tridodecylamine] + CCCCCCCCCCO
- refractive index ([1]; x1 = 0.0522): 1.4385 ± 0.0004
- refractive index ([1]; x1 = 0.104): 1.4409 ± 0.0004
- refractive index ([1]; x1 = 0.2071): 1.4448 ± 0.0004
- refractive index ([1]; x1 = 0.3096): 1.447 ± 0.0004
- refractive index ([1]; x1 = 0.4117): 1.4493 ± 0.0004
- refractive index ([1]; x1 = 0.5112): 1.4506 ± 0.0004
- refractive index ([1]; x1 = 0.6117): 1.4519 ± 0.0004
- refractive index ([1]; x1 = 0.7097): 1.4528 ± 0.0004
- refractive index ([1]; x1 = 0.8078): 1.4535 ± 0.0004
- refractive index ([1]; x1 = 0.9041): 1.4541 ± 0.0004
- refractive index ([1]; x1 = 0.9534): 1.4544 ± 0.0004
- refractive index ([1]; x1 = 1): 1.4546 ± 0.0004
- mass density ([2]; x1 = 0.0522): 825.92 ± 0.1 kg/m3
- mass density ([2]; x1 = 0.104): 825.24 ± 0.1 kg/m3
- mass density ([2]; x1 = 0.2071): 824.17 ± 0.1 kg/m3
- mass density ([2]; x1 = 0.3096): 823.37 ± 0.1 kg/m3
- mass density ([2]; x1 = 0.4117): 822.57 ± 0.1 kg/m3
- mass density ([2]; x1 = 0.5112): 821.93 ± 0.1 kg/m3
- mass density ([2]; x1 = 0.6117): 821.35 ± 0.1 kg/m3
- mass density ([2]; x1 = 0.7097): 820.82 ± 0.1 kg/m3
- mass density ([2]; x1 = 0.8078): 820.35 ± 0.1 kg/m3
- mass density ([2]; x1 = 0.9041): 819.86 ± 0.1 kg/m3
- mass density ([2]; x1 = 0.9534): 819.53 ± 0.1 kg/m3
- mass density ([2]; x1 = 1): 819.23 ± 0.11 kg/m3

Structure (SMILES): CCCCCCCCO [octan-1-ol] + CCCCCCCCCCCCN(CCCCCCCCCCCC)CCCCCCCCCCCC
- refractive index ([1]; x2 = 0): 1.4275 ± 0.0004
- mass density ([2]; x2 = 0): 821.76 ± 0.1 kg/m3

Structure (SMILES): CCCCCCCCCCCCN(CCCCCCCCCCCC)CCCCCCCCCCCC [tridodecylamine] + CCCCCCCCO
- refractive index ([1]; x1 = 0.0652): 1.4337 ± 0.0004
- refractive index ([1]; x1 = 0.1282): 1.438 ± 0.0004
- refractive index ([1]; x1 = 0.2477): 1.4434 ± 0.0004
- refractive index ([1]; x1 = 0.3616): 1.4468 ± 0.0004
- refractive index ([1]; x1 = 0.469): 1.4491 ± 0.0004
- refractive index ([1]; x1 = 0.5695): 1.4506 ± 0.0004
- refractive index ([1]; x1 = 0.6684): 1.4519 ± 0.0004
- refractive index ([1]; x1 = 0.7531): 1.4528 ± 0.0004
- refractive index ([1]; x1 = 0.8438): 1.4535 ± 0.0004
- refractive index ([1]; x1 = 0.9238): 1.4541 ± 0.0004
- refractive index ([1]; x1 = 0.9643): 1.4544 ± 0.0004
- refractive index ([1]; x1 = 1): 1.4546 ± 0.0004
- mass density ([2]; x1 = 0.0652): 821.91 ± 0.1 kg/m3
- mass density ([2]; x1 = 0.1282): 821.75 ± 0.1 kg/m3
- mass density ([2]; x1 = 0.2477): 821.37 ± 0.1 kg/m3
- mass density ([2]; x1 = 0.3616): 820.95 ± 0.1 kg/m3
- mass density ([2]; x1 = 0.469): 820.67 ± 0.1 kg/m3
- mass density ([2]; x1 = 0.5695): 820.41 ± 0.1 kg/m3
- mass density ([2]; x1 = 0.6684): 820.15 ± 0.1 kg/m3
- mass density ([2]; x1 = 0.7531): 819.94 ± 0.1 kg/m3
- mass density ([2]; x1 = 0.8438): 819.65 ± 0.1 kg/m3
- mass density ([2]; x1 = 0.9238): 819.4 ± 0.1 kg/m3
- mass density ([2]; x1 = 0.9643): 819.29 ± 0.1 kg/m3
- mass density ([2]; x1 = 1): 819.23 ± 0.11 kg/m3

Structure (SMILES): CCCCCCCCCCCCN(CCCCCCCCCCCC)CCCCCCCCCCCC [tridodecylamine]
- Normal melting temperature [3]: 16.1 ± 0.4 °C

Structure (SMILES): CCCCCCCCCCO [decan-1-ol] + CCCCCCC(C)O
- refractive index ([1]; x2 = 0): 1.4354 ± 0.0004
- mass density ([2]; x2 = 0): 826.59 ± 0.1 kg/m3

Structure (SMILES): CCCCCCCCCCO [decan-1-ol] + CCCCCCCCCCCCN(CCCCCCCCCCCC)CCCCCCCCCCCC
- refractive index ([1]; x2 = 0): 1.4354 ± 0.0004
- mass density ([2]; x2 = 0): 826.59 ± 0.1 kg/m3

Structure (SMILES): CCCCCCCCO [octan-1-ol] + CCCCCCC(C)O
- refractive index ([1]; x1 = 1): 1.4275 ± 0.0004
- mass density ([2]; x1 = 1): 821.76 ± 0.1 kg/m3

Structure (SMILES): CCCCCCC(C)O (stereo unspecified) [2-octanol] + CCCCCCCCCCO
- refractive index ([1]; x1 = 0.0505): 1.4349 ± 0.0004
- refractive index ([1]; x1 = 0.1001): 1.4344 ± 0.0004
- refractive index ([1]; x1 = 0.1998): 1.4334 ± 0.0004
- refractive index ([1]; x1 = 0.2999): 1.4325 ± 0.0004
- refractive index ([1]; x1 = 0.4006): 1.4315 ± 0.0004
- refractive index ([1]; x1 = 0.5001): 1.4304 ± 0.0004
- refractive index ([1]; x1 = 0.6): 1.4293 ± 0.0004
- refractive index ([1]; x1 = 0.6999): 1.4281 ± 0.0004
- refractive index ([1]; x1 = 0.7995): 1.427 ± 0.0004
- refractive index ([1]; x1 = 0.8998): 1.4257 ± 0.0004
- refractive index ([1]; x1 = 0.95): 1.4251 ± 0.0004
- refractive index ([1]; x1 = 1): 1.4244 ± 0.0004
- mass density ([2]; x1 = 0.0505): 826.1 ± 0.1 kg/m3
- mass density ([2]; x1 = 0.1001): 825.65 ± 0.1 kg/m3
- mass density ([2]; x1 = 0.1998): 824.82 ± 0.1 kg/m3
- mass density ([2]; x1 = 0.2999): 824.02 ± 0.1 kg/m3
- mass density ([2]; x1 = 0.4006): 823.14 ± 0.1 kg/m3
- mass density ([2]; x1 = 0.5001): 822.18 ± 0.1 kg/m3
- mass density ([2]; x1 = 0.6): 821.17 ± 0.1 kg/m3
- mass density ([2]; x1 = 0.6999): 820.13 ± 0.1 kg/m3
- mass density ([2]; x1 = 0.7995): 819.04 ± 0.11 kg/m3
- mass density ([2]; x1 = 0.8998): 817.86 ± 0.11 kg/m3
- mass density ([2]; x1 = 0.95): 817.21 ± 0.11 kg/m3
- mass density ([2]; x1 = 1): 816.49 ± 0.11 kg/m3

Structure (SMILES): CCCCCCCCCCCCN(CCCCCCCCCCCC)CCCCCCCCCCCC [tridodecylamine] + CCCCCCC(C)O
- refractive index ([1]; x1 = 0.0526): 1.4296 ± 0.0004
- refractive index ([1]; x1 = 0.1042): 1.4336 ± 0.0004
- refractive index ([1]; x1 = 0.2072): 1.4396 ± 0.0004
- refractive index ([1]; x1 = 0.31): 1.4436 ± 0.0004
- refractive index ([1]; x1 = 0.4111): 1.4465 ± 0.0004
- refractive index ([1]; x1 = 0.5114): 1.4486 ± 0.0004
- refractive index ([1]; x1 = 0.6109): 1.4503 ± 0.0004
- refractive index ([1]; x1 = 0.7083): 1.4516 ± 0.0004
- refractive index ([1]; x1 = 0.805): 1.4528 ± 0.0004
- refractive index ([1]; x1 = 0.9037): 1.4537 ± 0.0004
- refractive index ([1]; x1 = 0.9524): 1.4541 ± 0.0004
- refractive index ([1]; x1 = 1): 1.4546 ± 0.0004
- mass density ([2]; x1 = 0.0526): 816.69 ± 0.11 kg/m3
- mass density ([2]; x1 = 0.1042): 816.97 ± 0.11 kg/m3
- mass density ([2]; x1 = 0.2072): 817.55 ± 0.11 kg/m3
- mass density ([2]; x1 = 0.31): 818.03 ± 0.11 kg/m3
- mass density ([2]; x1 = 0.4111): 818.41 ± 0.11 kg/m3
- mass density ([2]; x1 = 0.5114): 818.68 ± 0.11 kg/m3
- mass density ([2]; x1 = 0.6109): 818.88 ± 0.11 kg/m3
- mass density ([2]; x1 = 0.7083): 819.04 ± 0.11 kg/m3
- mass density ([2]; x1 = 0.805): 819.15 ± 0.11 kg/m3
- mass density ([2]; x1 = 0.9037): 819.22 ± 0.11 kg/m3
- mass density ([2]; x1 = 0.9524): 819.24 ± 0.11 kg/m3
- mass density ([2]; x1 = 1): 819.23 ± 0.11 kg/m3
